Assay results taken from patent publication US7964624B1, “Inhibitors of serine proteases” (priority 2005, dated 2011).

How the values were obtained:
HCV NS3 protease domain = biological target: T1, HCV NS3 protease domain (Hepatitis C virus genotype 1b, UniProt Q9WMX2); experiment: biochemical; conditions: Enzyme Assay 1 (HCV NS3 Protease Domain Peptide Cleavage Assay) activity, apparent Ki class
T1 construct: The first 181 amino acids of NS3 (residues 1027-1207 of the viral polyprotein); hexa-histidine (C); made in house; host or cells: E. coli BL21/DE3 pLysS

[1] = biological target: T2, full-length hepatitis C viral protein NS3•4A (Hepatitis C virus genotype 1a, UniProt P27958); experiment: biochemical; design: species or system HCV sub-type strain 1a; conditions: Enzyme Assay 2 (HCV NS3 Peptide Cleavage Assay) activity, apparent Ki class
T2 construct: hexa-histidine (N); made in house; host or cells: Sf9 insect cells (baculovirus, pVL1392)

SMILES	Ki (HCV NS3 protease domain) [µM]	Ki [1] [µM]
CCC[C@H](NC(=O)[C@@H]1C[C@]2(CC(c3cccc(Cl)c3)=NO2)CN1C(=O)CCn1c(=O)oc2ccccc21)C(=O)C(=O)NC1CC1 [Compound 376]	> 0.5	> 0.5
CCC[C@H](NC(=O)[C@@H]1C[C@]2(CC(c3cccc(Cl)c3)=NO2)CN1C(=O)[C@@H](NC(=O)[C@@H]1CCC(=O)N1Cc1cccc(Cl)c1)C(C)(C)C)C(=O)C(=O)NC1CC1 [Compound 377]	0.1 to 0.5	< 0.1
C=C[C@@H]1C[C@]1(NC(=O)[C@@H]1C[C@]2(CC(c3cccc(Cl)c3)=NO2)CN1C(=O)[C@@H](NC(=O)CC1CCOCC1)C(C)(C)C)C(=O)O [Compound 384]	> 0.5	> 0.5
CC(C)(C)[C@H](NC(=O)CC1CCCCC1)C(=O)N1C[C@@]2(CC(c3cccc(Cl)c3)=NO2)C[C@H]1C(=O)N[C@@H](CC1CC1)C(=O)C(N)=O [Compound 388]	< 0.1	< 0.1
CCC[C@H](NC(=O)[C@@H]1C[C@]2(CC(c3cccc(Cl)c3)=NO2)CN1C(=O)CC(NS(=O)(=O)c1ccc(OC)cc1)C(C)C)C(=O)C(=O)NC1CC1 (some centres unmarked) [Compound 395]	> 0.5	> 0.5
CCC[C@H](NC(=O)[C@@H]1C[C@]2(CC(c3cccc(Cl)c3)=NO2)CN1C(=O)CN1C(=O)OC[C@@H]1c1ccccc1)C(=O)C(=O)NC1CC1 [Compound 397]	> 0.5	> 0.5
CCC[C@H](NC(=O)[C@@H]1C[C@]2(CC(c3cccc(Cl)c3)=NO2)CN1C(=O)[C@@H](NC(=O)CC1CCCCC1)C(C)(C)C)C(=O)C(=O)NC1(C(=O)OC)CC1 [Compound 399]	> 0.5	> 0.5
CCC[C@H](NC(=O)[C@@H]1C[C@]2(CC(c3cccc(Cl)c3)=NO2)CN1C(=O)[C@@H](NC(=O)CC1CCCCC1)C(C)(C)C)C(=O)C(=O)NC1CCC1 [Compound 401]	0.1 to 0.5	0.1 to 0.5
CCC[C@H](NC(=O)[C@@H]1C[C@]2(CC(c3cccc(Cl)c3)=NO2)CN1C(=O)[C@@H](NC(=O)CC1CCCCC1)C(C)(C)C)C(=O)C(=O)NCCOC [Compound 404]	> 0.5	0.1 to 0.5
CCC[C@H](NC(=O)[C@@H]1C[C@]2(CC(c3cccc(Cl)c3)=NO2)CN1C(=O)[C@@H](NC(=O)CC1CCCCC1)C(C)(C)C)C(=O)C(=O)NCc1cccnc1 [Compound 408]	> 0.5	0.1 to 0.5
CCC[C@H](NC(=O)[C@@H]1C[C@]2(CC(c3cccc(Cl)c3)=NO2)CN1C(=O)[C@@H](NC(=O)CC1CCCCC1)C(C)(C)C)C(=O)C(=O)N1CCOCC1 [Compound 410]	> 0.5	> 0.5
CCC[C@H](NC(=O)[C@@H]1C[C@]2(CC(c3cc(F)c(OCC)c(Cl)c3)=NO2)CN1C(=O)[C@@H](NC(=O)CC1CCOCC1)C(C)(C)C)C(=O)C(=O)NC1CC1 [Compound 411]	0.1 to 0.5	< 0.1
CCC[C@H](NC(=O)[C@@H]1CC2(CC(c3cccc(Cl)c3)=NO2)CN1C(=O)[C@H](Cc1ccc(O)cc1)NC(C)=O)C(=O)C(=O)NC1CC1 (some centres unmarked) [Compound 412]	0.1 to 0.5	0.1 to 0.5
CCC[C@H](NC(=O)[C@@H]1C[C@]2(CC(c3cccc(Cl)c3)=NO2)CN1C(=O)[C@@H](NS(=O)(=O)c1ccc(Cl)cc1)C(C)CC)C(=O)C(=O)NC1CC1 (some centres unmarked) [Compound 416]	> 0.5	0.1 to 0.5
CNC(=O)C(=O)C(CC1CCC1)NC(=O)[C@@H]1C[C@]2(CC(c3cccc(Cl)c3)=NO2)CN1C(=O)[C@@H](NC(=O)CC1CCOC(C)(C)C1)C(C)(C)C (some centres unmarked) [Compound 419]	0.1 to 0.5	0.1 to 0.5
CCC[C@H](NC(=O)[C@@H]1C[C@]2(CC(c3cccc(Cl)c3)=NO2)CN1C(=O)c1[nH]c2ccccc2c1CC(=O)N(CC)CC)C(=O)C(=O)NC1CC1 [Compound 420]	> 0.5	> 0.5

SMILES	Ki (HCV NS3 protease domain) [µM]	Ki [1] [µM]
CCC[C@H](NC(=O)[C@@H]1C[C@]2(CC(c3cccc(Cl)c3)=NO2)CN1C(=O)[C@@H](NC(=O)CC1CCCCC1)C(C)(C)C)C(=O)C(=O)N1CC(C)(O)C1 [Compound 426]	> 0.5	0.1 to 0.5
CCC[C@H](NC(=O)[C@@H]1C[C@]2(CC(c3cccc(Cl)c3)=NO2)CN1C(=O)[C@@H](NC(=O)CC1CCCCC1)C(C)(C)C)C(=O)C(=O)NC1(c2ccccc2)CC1 [Compound 429]	> 0.5	> 0.5
CCC[C@H](NC(=O)[C@@H]1C[C@]2(CC(c3cc(Cl)c4c(c3)CCCN4C)=NO2)CN1C(=O)[C@@H](NC(=O)CC1CCCCC1)C(C)(C)C)C(=O)C(=O)NC1CC1 [Compound 430]	0.1 to 0.5	< 0.1
CCC[C@H](NC(=O)[C@@H]1C[C@]2(CC(c3cccc(Cl)c3)=NO2)CN1C(=O)[C@@H](NC(=O)CC1CCCCC1)C(C)(C)C)C(=O)C(=O)NCc1cc(-c2ccc(Cl)cc2)no1 [Compound 433]	> 0.5	> 0.5
CCC[C@H](NC(=O)[C@@H]1C[C@]2(CC(c3cccc(Cl)c3)=NO2)CN1C(=O)[C@H](CSC(C)(C)C)NC(=O)CC1CCCCC1)C(=O)C(=O)NC1CC1 [Compound 437]	> 0.5	> 0.5
C=C[C@@H]1C[C@]1(NC(=O)[C@@H]1C[C@]2(CC(CC)=NO2)CN1C(=O)[C@@H](NC(=O)OC1CCCC1)C(C)(C)C)C(=O)NS(=O)(=O)C1CC1 [Compound 438]	> 0.5	0.1 to 0.5
C=C[C@@H]1C[C@]1(NC(=O)[C@@H]1C[C@]2(CC(c3cccc(Cl)c3)=NO2)CN1C(=O)[C@@H](NC(=O)OC(C)(C)C)C(C)(C)C)C(=O)O [Compound 439]	> 0.5	> 0.5
CCC[C@H](NC(=O)[C@@H]1C[C@]2(CC(c3cccc(Cl)c3)=NO2)CN1C(=O)[C@@H](NC(=O)CC1CCCCC1)C(C)(C)C)C(=O)C(=O)NCc1ccco1 [Compound 441]	> 0.5	0.1 to 0.5
CCC[C@H](NC(=O)[C@@H]1C[C@]2(CC(c3cccc(Cl)c3)=NO2)CN1C(=O)[C@@H](NC(=O)CC1C[C@@H](C)O[C@@H](C)C1)C(C)(C)C)C(=O)C(=O)NC1CC1 (some centres unmarked) [Compound 442]	0.1 to 0.5	< 0.1
C=C[C@@H]1C[C@]1(NC(=O)[C@@H]1C[C@]2(CC(c3cccc(Cl)c3)=NO2)CN1C(=O)[C@@H](NC(=O)OC1CCCC1)C(C)(C)C)C(=O)O [Compound 443]	> 0.5	> 0.5
CCC[C@H](NC(=O)[C@@H]1C[C@]2(CC(c3cccc(Cl)c3)=NO2)CN1C(=O)[C@@H](NC(=O)CC1CCC2(CC1)OCCO2)C(C)(C)C)C(=O)C(=O)NC1CC1 [Compound 445]	0.1 to 0.5	< 0.1
CCC[C@H](NC(=O)[C@@H]1C[C@]2(CC(c3cccc(Cl)c3)=NO2)CN1C(=O)[C@@H](NC(=O)CC1CCCCC1)C(C)(C)C)C(=O)C(=O)NCCc1cccnc1 [Compound 447]	> 0.5	0.1 to 0.5
CCC[C@H](NC(=O)[C@@H]1C[C@]2(CC(c3cccc(Cl)c3)=NO2)CN1C(=O)[C@@H](NC(=O)CC1CCCCC1)C(C)(C)C)C(=O)C(=O)N[C@H](C)CC [Compound 452]	> 0.5	0.1 to 0.5
C=C[C@@H]1C[C@]1(NC(=O)[C@@H]1C[C@]2(CC(c3cccc(Cl)c3)=NO2)CN1C(=O)[C@@H](NC(=O)NC(C)(C)C)C(C)(C)C)C(=O)O [Compound 457]	> 0.5	> 0.5
CCC[C@H](NC(=O)[C@@H]1C[C@]2(CC(c3cccc(Cl)c3)=NO2)CN1C(=O)[C@@H](NC(=O)CC1CCCCC1)C(C)(C)C)C(=O)C(=O)NCCC1C(=O)Nc2ccccc21 (some centres unmarked) [Compound 458]	> 0.5	> 0.5
